Here are results for 3 molecules from patent US5627173A, “Phosphonoacetic acid derivatives and their use for treating degenerative joint disorders” (Hoechst Aktiengesellschaft, priority 1995, dated 1997).

Molecules are shown by their SMILES. Converted amounts (≈) assume the structure as drawn.

Test [1] relates to isolated guinea pig trachea. Description: Antagonism of PGF2α-induced contraction of the isolated guinea pig trachea. Particulars: Cavia porcellus; agonist PGF2α; read-out: Anticontractile effect (trachea), concentration range needed to bring about a dilatation corresponding to the ED50 range. An excerpt: (§1) The compounds according to the invention are used as antagonists of the contraction of various parts of organs, in this case the isolated guinea pig trachea. The agonists used were KCl, PGF2a, calcium ionophore A23187 and substance P:
Inhibition of contractions induced by this cyclooxygenase product is possible only by competitive antagonism at the receptor or of the downstream signal pathway.
(§2) The guinea pigs were sacrificed by lethal anesthesia with laughing gas. The trachea was dissected out over its entire length and cut into 15 individual cartilage rings. In each case five rings were connected together to form a chain and fixed in an organ bath under a preload of 3 g. After an equilibration period of 45 minutes, a contraction was induced with the agonist. Cumulative addition of the antagonist (test product) took place at the plateau 5 of the maximum. Evaluation took place as % change in strength based on the maximum contraction. The test was carried out at 37° C., and the physiological nutrient solution used was a modified Krebs-Henseleit solution through which 95% by volume 02 and 5% by volume CO2 was bubbled.
(§3) Test animals: Albino guinea pigs (102), weight: 200 to 300 g, male or female
(§4) Composition of the organ bath (nutrient solution):
(§5) Vehicle: Double-distilled water, ethanol or isopropanol; Administration: into the organ bath Number of administrations: cumulative, single doses for SP

Test [2] concerns isolated guinea pig trachea. Description: Antagonism of KCl-induced contraction of the isolated guinea pig trachea. The conditions noted are these: Cavia porcellus; agonist KCl; read-out: Anticontractile effect (trachea), concentration range needed to bring about a dilatation corresponding to the ED50 range.
Excerpt: as §1
Products with a non-specific effect generally show a spasmolytic effect with respect to all agonists. KCI is representative here of non-specific, receptor-independent contraction because KCl-induced contractions are produced predominantly physically, that is to say by increasing the K+ concentration in the outside medium, and change the resting potential of the cell.
as §2, §3, §4, §5

Test [3] relates to isolated guinea pig trachea. Nature of the test: Antagonism of substance P-induced contraction of the isolated guinea pig trachea. The conditions noted are these: Cavia porcellus; agonist substance P; read-out: Anticontractile effect (trachea), concentration range needed to bring about a dilatation corresponding to the ED50 range.
Excerpt: as §1
Antagonism is possible on the one hand by specific receptor antagonists, and on the other hand by inhibition of the downstream signal pathway.
as §2, §3, §4, §5

The test system of test [4] is isolated strips of guinea pig lung. Nature of the test: Antagonism of PAF-induced contraction of isolated strips of guinea pig lung. Particulars: Cavia porcellus; agonist PAF; read-out: Anticontractile effect (lung), concentration range corresponding to the IC50 value. An excerpt:
(§6) The test was based on the same principle as the test indicated in Pharmacological Test 5; however, strips of lung were used in this case.
(§7) The guinea pig was sacrificed under anesthesia with laughing gas. The entire lung tract was cut out starting from the trachea. The lobes of the lungs were cut in circular fashion to produce strips about 3 mm wide. The strips of the upper lobes were divided up in order to obtain a total of six strips of approximately equal size. The strips were suspended in the organ baths under a preload of 4 g. Modified Krebs-Henseleit solutions were used as nutrient solution. When platelet activating factor (PAF) was used as agonist, the composition of this solution corresponded to that for the agonist SP in Pharmacological Test 5; a Krebs-Henseleit solution as in the case of the agonist KCI (Pharm. Test 5) was used for the agonist LTD4. 95% by volume 02, 5% by volume CO2 was bubbled through the bath, and the bath temperature was 37° C. The test is carried out by a therapeutic/cumulative method with dose levels of 1, 3, 6 and 10 μg/ml.
(§8) The test animals, organ bath, vehicle, mode of administration corresponded to that stated for Pharmacological Test 5.

For test [5] the test system is unchanged. Nature of the test: Antagonism of LTD4-induced contraction of isolated strips of guinea pig lung. Particulars: Cavia porcellus; agonist LTD4; read-out: Anticontractile effect (lung), concentration range corresponding to the IC50 value.
Excerpt: as §6, §7, §8

For test [6], the system named is isolated guinea pig trachea. Nature of the test: Antagonism of calcium ionophore A23187-induced contraction of the isolated guinea pig trachea. The conditions noted are these: Cavia porcellus; agonist Ca ionophore A23187; read-out: Anticontractile effect (trachea), concentration range needed to bring about a dilatation corresponding to the ED50 range.
Excerpt: as §1
c) Calcium ionophore A23187 (Calbiochem, Bad Soden) brings about, due to increased uptake of calcium ions, an activation of all calcium-dependent signal cascades in the cell.
as §2, §3, §4, §5

Test [7] concerns phosphodiesterase III. Nature of the test: Inhibition of phosphodiesterase III activity. Type of test: biochemical. The conditions noted are these: 100 μM. How it is done: The test was carried out with the phosphodiesterase of Boehringer Mannheim (Mannheim, Germany), Order no. 108 243 by the method of T. SAEKI, I. SAITO, Biochem. Pharm. 46, No. 5, […], pages 833-839.
In test [8] the test system is RAW 264.7 cells. Description: Release of substance P from RAW 264.7 cells. Particulars: Mus musculus, RAW264.7, stimulated by 50 ng of LPS for 4 hours, read-out: inhibition of substance P production. The test is classed as cell-based. How it is done:
(§9) Culture medium: DMEM+10% FCS+penicillin/streptomycin (50 U/SO μg/ml)
(§10) Culture conditions: 37° C., 10% CO2
(§11) Culture dishes: 24-well dishes
(§12) In each case 10^6 cells/ml/well were incubated for 24 hours (h)
(§13) Addition of 10 μl of test substance (=100 μM in the test, dissolved in double-distilled water)
Release of substance P took place as described for TNFα, but the cells were stimulated by 50 ng of LPS for 4 hours. Substance P was determined using a substance P RIA test kit from Peninsula Laboratories (Belmont, USA) Test no. RIK-7451.

In test [9] the test system is RAW 264.7 cells. Description: Release of tumor necrosis factor α from RAW 264.7 cells. The test is classed as cell-based. The conditions noted are these: Mus musculus, RAW264.7, LPS, incubation for 2.5 hours, read-out: inhibition of TNFα formation compared with an untreated control. How it is done: as §9, §10, §11, §12, §13
Addition of 50 μl of lipopolysaccharide (LPS) from E. coli (=10 pg/ml in the test, dissolved in culture medium) […]
Tumor necrosis factor α was determined using a Factortest X mouse TNFα ELISA kit from Genzyme (R(1sselsheim, Geromany), Order no. 80-2802-00.

In the case of `CCOP(=O)(OCC)C(C#N)Cc1ccc(OCc2ccccc2)c(OCc2ccccc2)c1` (stereo not shown) [Compound 11], the results for the EC50 in test [1], in test [2] and in test [3] were over 10 µg/mL, over 10 µg/mL and 10 to 30 µg/mL (≈ 20.9 to 62.6 µM), respectively. The IC50 in test [4] is 6 to 10 µg/mL (≈ 12.5 to 20.9 µM).
Turning to `CCOP(=O)(OCC)C(C#N)=Cc1cc(OC)ccc1OC` [Compound 30], the EC50 in test [1] was 6 to 10 µg/mL (≈ 18.4 to 30.7 µM); in test [2], over 10 µg/mL; in [6], 3 to 6 µg/mL (≈ 9.22 to 18.4 µM); in test [3], 10 to 30 µg/mL (≈ 30.7 to 92.2 µM). The IC50 is about 10 µg/mL (≈ 30.7 µM) in [5] and 1 to 3 µg/mL (≈ 3.07 to 9.22 µM) in test [4].
For `CCOP(=O)(OCC)/C(C#N)=C\c1ccc(OC)c(OC)c1` [Compound 37, Z- and E-2-(diethoxyphosphinyl)-3-(3,4-dimethoxyphenyl) acrylonitrile], the “inhibition of enzyme activity (phosphodiesterase III)” value in test [7] stood at 39%. In addition, the inhibition at 100 µM worked out at 100% in test [8] and 55% in test [9]. Further, the EC50 in [1] is about 3 µg/mL (≈ 9.22 µM); in [2] it was about 10 µg/mL (≈ 30.7 µM); in test [6], about 1 µg/mL (≈ 3.07 µM); in test [3], about 3 µg/mL (≈ 9.22 µM). Further, the IC50 lay in the range of 0.1 to 0.3 µg/mL (≈ 0.307 to 0.922 µM) in test [5] and 1 to 3 µg/mL (≈ 3.07 to 9.22 µM) in [4].
